The target in data set [1] is T1, Human Skin Chymase (Homo sapiens, UniProt P23946).
T1 construct: purchased Cortex Biochem CP1129; host or cells: human skin
T1 sequence (P23946 22-247): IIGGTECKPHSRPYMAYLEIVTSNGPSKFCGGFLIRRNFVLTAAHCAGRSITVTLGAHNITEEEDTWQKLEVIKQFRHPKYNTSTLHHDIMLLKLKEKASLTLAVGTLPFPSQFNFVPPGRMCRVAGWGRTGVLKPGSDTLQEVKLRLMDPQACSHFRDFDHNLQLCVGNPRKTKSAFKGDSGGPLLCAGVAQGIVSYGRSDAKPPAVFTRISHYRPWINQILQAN
Description: Chymase IC50 Method. To be noted: 37° C., 10.0 nM enzyme, 500 μM substrate. In kind it is biochemical. As to the method: (§1) The enzyme reaction is started by the addition of enzyme ([E]: 1.0 nM human Lung Tryptase; Cortex Biochem CP3033). Data is collected over a period of 30 min. and the initial rate of substrate hydrolysis (Vo (mOD/min)) is calculated. Inhibition is calculated by comparing to wells containing no inhibitor (vehicle) and IC50 s are determined using a four parameter fit logistics model. […] The enzyme reaction is started by the addition of enzyme ([E]: 10.0 nM Human Skin Chymase; Cortex Biochem CPl 129). Data is collected over a period of 30 min. and the initial rate of substrate hydrolysis (Vo (mOD/min)) is calculated. Inhibition is calculated by comparing to wells containing no inhibitor (vehicle) and IC50 s are determined using a four parameter fit logistics model. Chymase 10 μM Screen Method: The optical density at 405 nm due to hydrolysis of synthetic chromogenic peptide substrates ([S]: 500 μM Suc-Ala-Ala-Pro-Phe-pNA; Bachem L-1400) is measured in the presence and absence of inhibitor compounds of formula (I) with a microplate reader at room temperature. The enzyme reaction is started by the addition of enzyme ([E]: 5.0 nM Human Skin Chymase; Cortex Biochem CP1129), and 3 hours following that addition data is collected. After subtracting background (no enzyme addition), inhibition is calculated by comparing to wells containing no inhibitor (vehicle).

Data set [2] concerns the target T1, Human Skin Chymase. Description: Chymase 10 μM Screen Method. In kind it is biochemical. To be noted: read-out: Chymase % Inhibition (10 μM). As to the method: The enzyme reaction is started by the addition of enzyme ([E]: 1.0 nM human Lung Tryptase; Cortex Biochem CP3033). Data is collected over a period of 30 min. and the initial rate of substrate hydrolysis (Vo (mOD/min)) is calculated. Inhibition is calculated by comparing to wells containing no inhibitor (vehicle) and IC50 s are determined using a four parameter fit logistics model. […] Data is collected over a period of 30 min. and the initial rate of substrate hydrolysis (Vo (mOD/min)) is calculated. Inhibition is calculated by comparing to wells containing no inhibitor (vehicle) and IC50 s are determined using a four parameter fit logistics model. […] The enzyme reaction is started by the addition of enzyme ([E]: 5.0 nM Human Skin Chymase; Cortex Biochem CP1129), and 3 hours following that addition data is collected. After subtracting background (no enzyme addition), inhibition is calculated by comparing to wells containing no inhibitor (vehicle).

Data set [3] concerns the target human Lung Tryptase. Description: Tryptase IC50 Method. In kind it is biochemical. To be noted: 37° C., 1.0 nM enzyme, 500 μM substrate. The procedure:
as §1

A short description of data set [4]: in vivo. The settings on record: rat, iv. Also noted: species or system male rats (Long Evans). The procedure:
Since the compounds of the formula (l) are also potent thrombin inhibitors (see U.S. Pat. No. 5,523,308), an ex vivo thrombin assay was conducted to determine the duration of action of the compounds of Formula I. For this i.v. assay male rats (Long Evans, 350-500 g) were implanted with a teflon cannulae via the femoral artery while under anesthesia (pentobarbital i.p., 35 mg/kg). After surgery, the animals were individually housed in standard cages, fed with rat chow (Hanlan, #8604) and continuously infused with physiological saline to maintain arterial patency, (0.5 mL/h, intra arterial) using a spring-shielded swiveling tether connected to an infusion system. The animals were allowed to recover for at least 24 h after the surgical procedure.
A sample of blood was drawn from the animals 15 min before dosing with the inhibitor (0.25 mL blood is drawn into a syringe containing 0.025 mL of Sigma sodium citrate). The test compound was dispersed in water and delivered to the animal (0.25 mL) via the femoral vein. The inhibitor was given at a concentration (mg/mL) which produced 80% inhibition of VO in a plasma sample at 5 min after infusion. Blood was drawn from the arterial line (blood:sodium citrate, 0.25/0.025 mL ) at regular intervals after dosing (5, 10, 15, 30, 60 and 120 min) and placed in a centrifuge tube. A plasma sample was obtained by centrifuging the blood at 10,000 rpm for 5 min. This sample is analyzed for thrombin inhibition using the chromogenic assay, described below.
The rate of increase in absorbance at 405 nm of synthetic peptides (50 μM Spectozyme® TH (H-D-HHT-Ala-Arg-pNA-2AcOH), American Diagnostica) is measured in the presence of plasma with a microplate reader (Molecular Devices) at 37° C. using an aqueous buffer (10 mM Tris, 10 mM Hepes, 150 mM NaCl, 0.1% PEG; pH 7.4). The buffer was added to the plasma samples (1:1) dilution prior to delivery to the microplate (1:5 and 1:50 for final plasma dilutions of 1:10 and 1:100 respectively) followed by the enzyme (1 nM human α thrombin). Datum was collected over a 30 min period and the initial rate of substrate hydrolysis (V0 (mOD/min)) was calculated with an analysis program (Softmax, Molecular Devices).
The time to half plasma elimination (t 1/2) was calculated from the slope of VO vs. time, using the following equation: […]. These datum are presented in Table L. In Table L, the compound # corresponds to the compound number described in U.S. Pat. No. 5,523,308.

Data set [5] in a line: Bioavailability, ex vivo thrombin inhibition assay after i.v. and p.o. dosing. It counts as in vivo. The settings on record: rat, plasma, po, male rats. As to the method:
Bioavailability was determined by an ex vivo thrombin inhibition assay which incorporated hydrolysis rates from drug administered both i.v. and p.o. In this assay male rats were prepared as described above with a Teflon tube implanted in their femoral artery. Blood was drawn from the animals 15 min before dosing with the inhibitor (0.25 mL blood was drawn into a syringe containing 0.025 mL of Sigma sodium citrate) and set aside for analysis. The test compound was dispersed in water (0.3-3.0 mg/mL final conc.) and delivered to the animals (0.25 mL) either i.v. or p.o.. […] This sample was analyzed for thrombin inhibition using the chromogenic assay, described below.
The rate of increase in absorbance at 405 nm of synthetic peptides (50 μM Spectozyme® TH (H-D-HHT-Ala-Arg-pNA-2AcOH), American Diagnostica) was measured in the presence of plasma with a microplate reader (Molecular Devices) at 37° C. using an aqueous buffer (10 mM Tris, 10 mM Hepes, 150 mM NaCI, 0.1% PEG; pH 7.4). […] Datum were collected over a 30 min period and the initial rate of substrate hydrolysis (VO (mOD/min)) was calculated with an analysis program (Softmax, Molecular Devices). […]
The percentage of thrombin inhibition in the treated animals was calculated by comparing the V0 prior to treatment with the V0 obtained from samples collected after treatment. […]

Where two headings read alike, the source gives them in different places.

As usually defined, the IC50 is the midpoint of a concentration-inhibition curve. In general, inhibition refers to the percentage by which the read-out fell short of the control. In data set [1], `CN[C@H](Cc1ccccc1)C(=O)N1CCC[C@H]1C(=O)N[C@@H](Cc1ccccc1)C(=O)c1nc2ccccc2s1` [Compound 38] returned a 50% inhibitory concentration (IC50) of 2700 nM. For the same compound, the inhibition at 10 µM in data set [2] was 94%.
For orientation: half-life means the time needed for the level to fall by half in the phase considered. High values mean slow loss, low ones fast loss. Broadly, the bioavailability is the share of a dose that reaches the circulation, judged against a reference dose that is usually intravenous. A high value points to good availability. Turning to `CN[C@H](Cc1ccccc1)C(=O)N1CCC[C@H]1C(=O)N[C@@H](CCCNC(=N)N)C(=O)c1nc2ccccc2s1` [Compound 1], the IC50 in data set [3] came out at 7.5 nM. Besides, in data set [2] (10 μM, room temperature, 5.0 nM enzyme, 3 hours), the inhibition at 10 µM is 2%. In addition, the half-life in data set [4] worked out at 19 min. In addition, the bioavailability in data set [5] was determined as 1.2%.

Values taken from patent publication US6323219A, “Methods for treating immunomediated inflammatory disorders” (Ortho-McNeil Pharmaceutical, Inc., priority 1999, dated 2001).
